Data on two compounds can be found in patent US20100048900A1, “AGENT FOR TREATMENT OF VASCULAR LEAKS” (priority 2006, published 2010).

In assay [1] the test system is human endothelial cells (HUVEC cells). The assay is described as follows: In-vitro inhibition of the interleukin-2 (Proleukin) induced VLS: spherical deformation of HUVEC cells. The class given is cell-based. Particulars: Proleukin in combination with 20 mM of substance, microscopic assessment after 4 to 6 days. The protocol: In-vitro examinations on the inhibition of the VLS induced by interleukin-2. Using human endothelial cells (HUVEC cells) the inhibition of the IL-2 induced VLS through ectoine and hydroxyectoine was investigated in an in-vitro system. In this context the concentrations of Proleukin® (by Chiron) were determined that lead to the spherical deformation of the HUVEC cells. The spherical deformation of HUVEC cells is considered as a sign for the triggering of the VLS, cf. Baluna et al., PNAS 3957-3962, March 1999. Same as VLS, this phenotype visible under the light microscope is based on the bonding of membrane proteins, the integrins. The cells were incubated with Proleukin solely or in combination with ectoine and hydroxyectoine. To verify the specificity of the compatible solutes also trehalose and glucose were employed additionally. After 4 to 6 days the proportion of normal and spherically deformed cells of a visual field are determined by microscopic assessment.

In assay [2] the test system is NK cells and T cells of healthy-blood donors. The assay is described as follows: Proleukin-induced interferon-γ synthesis of human lymphocytes (ELISA of supernatant). The class given is cell-based. Particulars: 250 U Proleukin in combination with 20 mM hydroxyectoine, 48 hours, FIG. 2. From the text:
Effects of hydroxyectoine on the Proleukin-induced interferon-γ-synthesis of human lymphocytes.
interleukin-2, IL-2, same as Proleukin leads to the activation of immune effector cells which can be determined, inter alia, by an increased interferon-γ secretion of NK cells and T-lymphocytes.
For this purpose NK cells and T cells of healthy-blood donors were isolated by means of the MACS technique (Magnetic Cell Sorting, Milteniy). The of detection of the cells expressing the surface markers CE 56, NKG2D and CD 3 was brought about by FACS analyses.
The cells without further additives have been incubated for 48 hours with 250 U Proleukin or with 250 U Proleukin in combination with 20 mM hydroxyectoine. Following this, the concentration of interferon-γ was determined in the supernatant of the cells with the aid of ELISA (triple determinations from two independent experiments).

As for `CC1=N[C@H](C(=O)O)CCN1` [ectoine, (4S)-2-methyl-1,4,5,6-tetrahydropyrimidine-4-carboxylic acid], in assay [1], the “reduction of the Proleukin-induced VLS phenotype (spherically deformed HUVEC cells; VLS inhibition percentage, FIG. 1)” value is “significantly reduce the VLS phenotype”.

As for `CC1=N[C@H](C(=O)O)[C@@H](O)CN1` [hydroxyectoine, (4S,5S)-5-hydroxy-2-methyl-1,4,5,6-tetrahydropyrimidine-4-carboxylic acid], in assay [1], the “reduction of the Proleukin-induced VLS phenotype (spherically deformed HUVEC cells; VLS inhibition percentage, FIG. 1)” value was “significantly reduce the VLS phenotype”. Moreover, the “inhibition of the induction of interferon-γ synthesis (concentration of interferon-γ in the supernatant)” value in assay [2] is on record as “does not inhibit the induction of the interferon-γ synthesis, on the contrary slightly increased values were found”.
